The source of these data is patent publication US12714721B2, “Methods of treatment of a cytokine storm” (Loma Linda University Health, priority 2020, dated 2026).

Common to all, as to assay type: in vivo, mouse
For assay [1], the system named is LPS induced sepsis and subsequent AKI. As to the kind of experiment: Renal function assessment: serum creatinine in LPS induced AKI. As for the experimental part:
(§1) Experimental Design for IGF-1 and BTP-2 studies—The animal experiments involved B6 mice between 5-8 weeks of age. Most experiments involved five groups of animals: (1) healthy, (2) LPS untreated (LPS-No Tx), (3) IGF-I in vivo gene therapy one day before LPS injection (LPS+IGF-1), (4) BTP-2 16 mg/kg i.p. at the start of the study and the (5) combined therapy with IGF-I and BTP-2 (LPS-IGF-1+BTP-2). For the survival experiment, a lethal dose of LPS (25 mg/kg) was used and all of the untreated animals died by 72 hours. In the other experiments, a sublethal dose of LPS (20 mg/kg) was used.
(§2) LPS induced sepsis and subsequent AKI—Female C57BL/6 mice received a sublethal or lethal dose of LPS from E. coli (0127: B8 strain, Sigma Aldrich, St. Louis, MO, USA) in a concentration of 20 or 25 mg/kg body weight administrated in sterile PBS by intraperitoneal injection.
(§3) Treatment—In a preventive therapeutic strategy, some of the mice received an intramuscular injection of Lenti-IGF-1 24 hours before LPS injection; whereas, the calcium signaling blocker BTP-2 (16 mg/kg, Cayman Chemical) was administrated 1 hour before LPS injection. Some of the animals received a combination of Lenti-IGF-1 and BTP-2. Control group mice were injected with an equal volume of PBS.
[…] Serum creatinine (CREA) were detected by Creatinine Assay Kit (Cayman Chemicals).

In a further assay the test system is LPS-induced AKI mice. The assay is described as follows: Survival test with a lethal dose of LPS (25 mg/kg body weight). To be noted: LPS 25 mg/kg i.p.; for overall survival rate: end of the experiment (144 h) (FIG. 1D); for mortality: pretreatment (FIG. 1D). As for the experimental part:
Different components of the treatment regimen were tested, individually and in combination, for their effect on prolonging survival or affecting mortality. A survival test was performed with a lethal dose of LPS (25 mg/kg body weight). As LPS causes AKI, a mouse model was utilized where AKI was induced by parenteral injection of LPS. Animals were treated with IGF-1 and Vitamin C, individually and in combination to evaluate their effect on survival (FIG. 1C). Kaplan Meier survival analysis was conducted between LPS induced systemic-sepsis animals treated with or without IGF-1, Vitamin C or combination therapy measured over the 96 hour-study period. […] No mortality was observed among healthy mice.
Different components of the treatment regimen were tested, individually and in combination, for their effect on prolonging survival or affecting mortality. A survival test was performed with a lethal dose of LPS (25 mg/kg body weight). Animals were treated with all components individually and in combination to evaluate their effect on survival. As LPS causes AKI, a mouse model was utilized where AKI was induced by parenteral injection of LPS. Pretreatment with IGF-1 monotherapy, BTP-2 monotherapy, and IGF-1+BTP-2 combination therapy was evaluated for effect in the mouse model to prevent the animals from succumbing to death due to organ failure in AKI. Mice (7 per groups) were i.p. injected with a lethal dose of LPS (25 mg/kg body weight). A group of mice received an i.p. injection of BTP-2 (16 mg/kg) one hour before LPS injection, and another group of mice received i.m. injection of Lenti-IGF1, 24 hours before LPS injection. A separate group of mice received a combination of IGF-1+BTP-2 as pretreatment. Mice were monitored every 6 hours. […] The mortality of LPS-injected mice that received an IGF-1 (labeled as LPS+IGF-1) pretreatment was 60% within 36 hours, and 88% at the end of the experiment (144 h). Mortality in LPS-injected mice that received BTP-2 (labeled as LPS+BTP-2) pretreatment was 0% within 36 hours, 30% within 48 hours and 72% at 144 hour-time point. However, the mortality in LPS-injected mice that received an IGF-1 and BTP-2 (labeled as LPS+IGF-1+BTP-2) pretreatment was comparatively low, which reached only 15% within 48 hours, and at the end of the 144 hour-time point reached only up to 43% (compared to LPS-No Tx). […] Meanwhile, no mortality was observed among mice treated with PBS, i.e., healthy group.
as §1, §2, §3

Another assay relates to lung. As to the kind of experiment: Lung immunocytochemistry (CD31, α-SMA). To be noted: lung sections (FIG. 14A). The method, then:
Acute Lung Injury Induced by LPS—Female C57BL/6 mice received a sublethal or lethal dose of LPS from Escherichia coli (0127: B8 strain, Sigma Aldrich, St. Louis, MO, USA). LPS in sterile PBS was administered intraperitoneally at 20- or 25-mg/kg body weight.
Treatment for Lung Studies-Lenti-IGF-I was administered intramuscularly 24 h before LPS injection. The TRP and ORAI calcium channel blocker BTP-2 (YM-58483 16 mg/kg, Cayman Chemical, Ann Arbor, MI, USA) was given IP 1 h before LPS injection. Some of the animals received a combination of lenti-IGF-I and BTP-2. Mice in control groups were injected with an equal volume of PBS.
Lung Immunocytochemistry—After the mice were sacrificed, one part of the lung was immediately cut, fixed in a 10% neutral-buffered formalin solution, embedded in paraffin, and used for histopathological examination. Ten-micrometer-thick sections were cut, deparaffinized, and hydrated. All lung serial sections were incubated at 4° C. overnight with one of two antibodies: rabbit polyclonal antibody against PECAM (CD31) (Santa Cruz Biotechnology, Dallas, TX, USA) or rabbit polyclonal antibody against α-SMA (Abcam, Cambridge, MA, USA). After washing, biotinylated goat anti-rabbit IgG (1:200, Vector Labs, Burlingame, CA, USA) were applied to the sections for 30 min at room temperature. […]

Setting [2] is: at 48 hours after LPS (FIG. 6A).

What is called mortality is the share of the test organisms that died. In the case of `Cc1nnsc1C(=O)Nc1ccc(-n2nc(C(F)(F)F)cc2C(F)(F)F)cc1` [BTP-2, 3,5-bis(trifluoromethyl)pyrazole derivative], in assay [1] (setting [2]), the serum creatinine entry is on record as “normalized”. The overall survival rate in the assay with LPS-induced AKI mice amounted to 28%. Besides, the mortality turned out to be 72% in the assay with LPS-induced AKI mice (end of the experiment (144 h)), 0% in the assay on LPS-induced AKI mice (within 36 hours) and 30% with LPS-induced AKI mice (within 48 hours). Moreover, in the assay with lung, the “immunocytochemical evaluation of CD31 (% of the area of CD31 staining)” value is recorded as “significantly improved”.

Turning to “IGF-I: Insulin-like Growth Factor, delivered by a lentiviral vector engineered to express IGF-I injected into skeletal muscle”, the serum creatinine result in assay [1] (LPS i.p. day 0, measured 7 days later, IGF-I gene therapy one day prior to LPS (FIG. 1B)) was “normalized”; in assay [1] (setting [2]), “improved”. Moreover, the overall survival rate in the assay on LPS-induced AKI mice was 12.5%. The mortality was 88% in the assay with LPS-induced AKI mice (end of the experiment (144 h)) and 60% in the assay on LPS-induced AKI mice (within 36 hours). Further, in the assay on lung, the “immunocytochemical evaluation of CD31 (% of the area of CD31 staining)” value is “significantly improved”.
